Measurements from ChEMBL document CHEMBL1201861, “Genomics of Drug Sensitity in Cancer screening data, Wellcome Trust Sanger Institute”.

Legend:
Assay in all cases: cells
Conditions in all cases: Homo sapiens
A101D = format: functional, cell-based;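 note: growth inhibition of the cell line, measured with a viability assay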
Description: SANGER: Inhibition of human A101D cell growth in a cell viability assay.

EW-3 = format: functional, cell-based;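 note: cell viability assay read-out, IC50 reflects inhibition of growth of the EW-3 cells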
Description: SANGER: Inhibition of human EW-3 cell growth in a cell viability assay.

COLO-668 = format: functional, cell-based
Description: SANGER: Inhibition of human COLO-668 cell growth in a cell viability assay.

TE-9 = format: functional, cell-based;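 note: cell growth inhibition, measured with a cell viability readout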
Description: SANGER: Inhibition of human TE-9 cell growth in a cell viability assay.

HD-MY-Z = format: functional, cell-based;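 note: growth inhibition of HD-MY-Z cells, read out with a cell viability assay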
Description: SANGER: Inhibition of human HD-MY-Z cell growth in a cell viability assay.

SH-4 = format: functional, cell-based;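 note: growth inhibition of SH-4 cells, read out with a cell viability assay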
Description: SANGER: Inhibition of human SH-4 cell growth in a cell viability assay.

NCI-H2126 = format: functional, cell-based;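 note: growth inhibition of the cancer cell line, determined with a cell viability readout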
Description: SANGER: Inhibition of human NCI-H2126 cell growth in a cell viability assay.

NCI-H1355 = format: functional, cell-based;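 note: growth inhibition of human NCI-H1355 cells, read out by a cell viability assay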
Description: SANGER: Inhibition of human NCI-H1355 cell growth in a cell viability assay.

RKO = format: functional, cell-based;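 note: growth inhibition of human RKO cells, read out with a cell viability assay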
Description: SANGER: Inhibition of human RKO cell growth in a cell viability assay.

NCI-H1155 = format: functional, cell-based;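 note: cell growth inhibition measured by a viability assay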
Description: SANGER: Inhibition of human NCI-H1155 cell growth in a cell viability assay.

MZ7-mel = format: functional, cell-based;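 note: growth inhibition of human MZ7-mel cells, measured by a cell viability assay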
Description: SANGER: Inhibition of human MZ7-mel cell growth in a cell viability assay.

GOTO = format: functional, cell-based;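 note: growth inhibition of GOTO cells, read out by a cell viability assay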
Description: SANGER: Inhibition of human GOTO cell growth in a cell viability assay.

GR-ST = format: functional, cell-based
Description: SANGER: Inhibition of human GR-ST cell growth in a cell viability assay.

KALS-1 = format: functional, cell-based;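 note: growth inhibition of KALS-1 cells, determined with a cell viability assay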
Description: SANGER: Inhibition of human KALS-1 cell growth in a cell viability assay.

NCI-H1648 = format: functional, cell-based;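 note: cell viability assay measuring inhibition of NCI-H1648 cell growth, from the Sanger screening data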
Description: SANGER: Inhibition of human NCI-H1648 cell growth in a cell viability assay.

TE-8 = format: functional, cell-based;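 note: growth inhibition of TE-8 cells, measured with a cell viability readout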
Description: SANGER: Inhibition of human TE-8 cell growth in a cell viability assay.

KGN = format: functional, cell-based;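 note: growth inhibition of KGN cells, read out with a cell viability assay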
Description: SANGER: Inhibition of human KGN cell growth in a cell viability assay.

KLE = format: functional, cell-based;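 note: growth inhibition of human KLE cells, read out with a cell viability assay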
Description: SANGER: Inhibition of human KLE cell growth in a cell viability assay.

EKVX = format: functional, cell-based;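 note: growth inhibition of human EKVX cells, read out with a cell viability assay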
Description: SANGER: Inhibition of human EKVX cell growth in a cell viability assay.

SK-NEP-1 = format: functional, cell-based;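 note: growth inhibition of human SK-NEP-1 cells, read out by a cell viability assay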
Description: SANGER: Inhibition of human SK-NEP-1 cell growth in a cell viability assay.

KINGS-1 = format: functional, cell-based;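 note: cell viability assay measuring suppression of KINGS-1 cell growth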
Description: SANGER: Inhibition of human KINGS-1 cell growth in a cell viability assay.

GAK = format: functional, cell-based;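 note: cell growth inhibition read out by a cell viability assay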
Description: SANGER: Inhibition of human GAK cell growth in a cell viability assay.

ML-2 = format: functional, cell-based;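 note: growth inhibition of ML-2 cells, measured with a cell viability readout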
Description: SANGER: Inhibition of human ML-2 cell growth in a cell viability assay.

HT-144 = format: functional, cell-based
Description: SANGER: Inhibition of human HT-144 cell growth in a cell viability assay.

U-87 MG = format: functional, cell-based, U-87MG ATCC;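 note: growth inhibition of the cells measured with a viability assay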
Description: SANGER: Inhibition of human U-87-MG cell growth in a cell viability assay.

RXF 393 = format: functional, cell-based;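 note: growth inhibition of human RXF 393 cells, read out with a cell viability assay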
Description: SANGER: Inhibition of human RXF393 cell growth in a cell viability assay.

MZ1-PC = format: functional, cell-based;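 note: cell viability assay measuring growth inhibition of human MZ1-PC cells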
Description: SANGER: Inhibition of human MZ1-PC cell growth in a cell viability assay.

EW-16 = format: functional, cell-based;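 note: growth inhibition of human EW-16 cells, read out as cell viability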
Description: SANGER: Inhibition of human EW-16 cell growth in a cell viability assay.

VA-ES-BJ = format: functional, cell-based;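 note: growth inhibition of the VA-ES-BJ cell line, read out by a cell viability assay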
Description: SANGER: Inhibition of human VA-ES-BJ cell growth in a cell viability assay.

EW-24 = format: functional, cell-based;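 note: human EW-24 cancer cell line, growth inhibition read out via a cell viability assay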
Description: SANGER: Inhibition of human EW-24 cell growth in a cell viability assay.

HC-1 = format: functional, cell-based;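 note: growth inhibition of HC-1 cells measured by a cell viability assay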
Description: SANGER: Inhibition of human HC-1 cell growth in a cell viability assay.

NCI-H23 = format: functional, cell-based;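 note: cell viability assay measuring growth inhibition of NCI-H23 cells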
Description: SANGER: Inhibition of human NCI-H23 cell growth in a cell viability assay.

SW 962 = format: functional, cell-based;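 note: growth inhibition of human SW962 cells, read out by a cell viability assay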
Description: SANGER: Inhibition of human SW962 cell growth in a cell viability assay.

NCI-H1650 = format: functional, cell-based;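 note: growth inhibition of human NCI-H1650 cells measured by a cell viability assay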
Description: SANGER: Inhibition of human NCI-H1650 cell growth in a cell viability assay.

SBC-1 = format: functional, cell-based;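 note: cell viability assay measuring growth inhibition of the SBC-1 cell line, IC50 being the concentration that halves growth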
Description: SANGER: Inhibition of human SBC-1 cell growth in a cell viability assay.

NEC8 = format: functional, cell-based;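 note: growth inhibition of human NEC8 cells, read out by a cell viability assay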
Description: SANGER: Inhibition of human NEC8 cell growth in a cell viability assay.

NCI-H1092 = format: functional, cell-based;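 note: cell growth inhibition measured with a cell viability assay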
Description: SANGER: Inhibition of human NCI-H1092 cell growth in a cell viability assay.

SK-PN-DW = format: functional, cell-based;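 note: growth inhibition measured with a viability assay on these cells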
Description: SANGER: Inhibition of human SK-PN-DW cell growth in a cell viability assay.

NCI-H226 = format: functional, cell-based;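 note: cell viability read-out used to gauge growth inhibition of the cells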
Description: SANGER: Inhibition of human NCI-H226 cell growth in a cell viability assay.

LB373-MEL-D = format: functional, cell-based;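 note: growth inhibition of the cell line, read out in a cell viability assay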
Description: SANGER: Inhibition of human LB373-MEL-D cell growth in a cell viability assay.

SK-N-DZ = format: functional, cell-based;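 note: growth inhibition of the cancer cell line, read out through a viability assay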
Description: SANGER: Inhibition of human SK-N-DZ cell growth in a cell viability assay.

KNS-81-FD = format: functional, cell-based;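 note: growth inhibition of KNS-81-FD cells, read out with a cell viability assay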
Description: SANGER: Inhibition of human KNS-81-FD cell growth in a cell viability assay.

L-363 = format: functional, cell-based
Description: SANGER: Inhibition of human L-363 cell growth in a cell viability assay.

no-10 = format: functional, cell-based;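 note: growth inhibition of no-10 cells, read out with a cell viability assay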
Description: SANGER: Inhibition of human no-10 cell growth in a cell viability assay.

KARPAS-299 = format: functional, cell-based
Description: SANGER: Inhibition of human KARPAS-299 cell growth in a cell viability assay.

NCI-H1838 = format: functional, cell-based;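 note: growth inhibition of NCI-H1838 cells, determined with a cell viability readout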
Description: SANGER: Inhibition of human NCI-H1838 cell growth in a cell viability assay.

LOX IMVI = format: functional, cell-based
Description: SANGER: Inhibition of human LOXIMVI cell growth in a cell viability assay.

K562 = format: functional, cell-based
Description: SANGER: Inhibition of human K-562 cell growth in a cell viability assay.

TE-12 = format: functional, cell-based;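 note: growth inhibition of TE-12 cells, read out by a cell viability assay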
Description: SANGER: Inhibition of human TE-12 cell growth in a cell viability assay.

IA-LM = format: functional, cell-based;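 note: cell viability assay measuring growth inhibition of human IA-LM cells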
Description: SANGER: Inhibition of human IA-LM cell growth in a cell viability assay.

TE-5 = format: functional, cell-based;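 note: inhibition of cell growth, read out by a cell viability assay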
Description: SANGER: Inhibition of human TE-5 cell growth in a cell viability assay.

NB5 = format: functional, cell-based;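 note: growth inhibition of NB5 cells, read out as cell viability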
Description: SANGER: Inhibition of human NB5 cell growth in a cell viability assay.

MS-1 = format: functional, cell-based;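 note: growth inhibition of MS-1 cells, read out by cell viability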
Description: SANGER: Inhibition of human MS-1 cell growth in a cell viability assay.

SF-126 = format: functional, cell-based;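 note: growth inhibition of human SF126 cells, read out with a cell viability assay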
Description: SANGER: Inhibition of human SF126 cell growth in a cell viability assay.

DEL = format: functional, cell-based;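 note: growth inhibition of the human DEL cell line, read out with a cell viability assay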
Description: SANGER: Inhibition of human DEL cell growth in a cell viability assay.

no-11 = format: functional, cell-based;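 note: growth inhibition of human NO-11 cells, read out with a cell viability assay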
Description: SANGER: Inhibition of human no-11 cell growth in a cell viability assay.

COLO-800 = format: functional, cell-based;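 note: growth inhibition of COLO-800 cells, read out with a cell viability assay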
Description: SANGER: Inhibition of human COLO-800 cell growth in a cell viability assay.

EW-11 = format: functional, cell-based
Description: SANGER: Inhibition of human EW-11 cell growth in a cell viability assay.

EM-2 = format: functional, cell-based
Description: SANGER: Inhibition of human EM-2 cell growth in a cell viability assay.

Calu-6 = format: functional, cell-based
Description: SANGER: Inhibition of human Calu-6 cell growth in a cell viability assay.

NCI-H1395 = format: functional, cell-based
Description: SANGER: Inhibition of human NCI-H1395 cell growth in a cell viability assay.

TGBC1TKB = format: functional, cell-based
Description: SANGER: Inhibition of human TGBC1TKB cell growth in a cell viability assay.

DB = format: functional, cell-based
Description: SANGER: Inhibition of human DB cell growth in a cell viability assay.

CGTH-W-1 = format: functional, cell-based
Description: SANGER: Inhibition of human CGTH-W-1 cell growth in a cell viability assay.

LC-2-ad = format: functional, cell-based
Description: SANGER: Inhibition of human LC-2-ad cell growth in a cell viability assay.

TK-10 = format: functional, cell-based
Description: SANGER: Inhibition of human TK10 cell growth in a cell viability assay.

In the case of `C/C(O)=C(\C#N)C(=O)Nc1cc(Br)ccc1Br`, the IC50 (A101D) is reported as > 16 µM, the IC50 (EW-3) is reported as > 16 µM and the IC50 (COLO-668) is reported as > 16 µM. The IC50 (TE-9) was > 16 µM, the IC50 (HD-MY-Z) was > 16 µM and the IC50 (SH-4) was > 16 µM. For the same compound, the IC50 (NCI-H2126) was > 16 µM, the IC50 (NCI-H1355) was > 16 µM and the IC50 (RKO) was > 16 µM. For the same compound, the IC50 (NCI-H1155) was > 16 µM, the IC50 (MZ7-mel) was > 16 µM and the IC50 (GOTO) was > 16 µM. The IC50 (GR-ST) was > 16 µM, the IC50 (KALS-1) was > 16 µM and the IC50 (NCI-H1648) was > 16 µM. The IC50 (TE-8) was > 16 µM, the IC50 (KGN) was > 16 µM and the IC50 (KLE) was > 16 µM. For the same compound, the IC50 (EKVX) was > 16 µM, the IC50 (SK-NEP-1) was > 16 µM and the IC50 (KINGS-1) was > 16 µM. The IC50 (GAK) was > 16 µM, the IC50 (ML-2) was > 16 µM and the IC50 (HT-144) was > 16 µM. For the same compound, the IC50 (U-87 MG) was > 16 µM, the IC50 (RXF 393) was > 16 µM and the IC50 (MZ1-PC) was > 16 µM. The IC50 (EW-16) was > 16 µM, the IC50 (VA-ES-BJ) was > 16 µM and the IC50 (EW-24) was > 16 µM. For the same compound, the IC50 (HC-1) was > 16 µM, the IC50 (NCI-H23) was > 16 µM and the IC50 (SW 962) was > 16 µM. The IC50 (NCI-H1650) was > 16 µM, the IC50 (SBC-1) was > 16 µM and the IC50 (NEC8) was > 16 µM. The IC50 (NCI-H1092) was > 16 µM, the IC50 (SK-PN-DW) was > 16 µM and the IC50 (NCI-H226) was > 16 µM. The IC50 (LB373-MEL-D) was > 16 µM, the IC50 (SK-N-DZ) was > 16 µM and the IC50 (KNS-81-FD) was > 16 µM. For the same compound, the IC50 (L-363) was > 16 µM, the IC50 (no-10) was > 16 µM and the IC50 (KARPAS-299) was > 16 µM. For the same compound, the IC50 (NCI-H1838) was > 16 µM, the IC50 (LOX IMVI) was > 16 µM and the IC50 (K562) was > 16 µM. For the same compound, the IC50 (TE-12) was > 16 µM, the IC50 (IA-LM) was > 16 µM and the IC50 (TE-5) was > 16 µM. The IC50 (NB5) was > 16 µM, the IC50 (MS-1) was > 16 µM and the IC50 (SF-126) was > 16 µM. For the same compound, the IC50 (DEL) was > 16 µM, the IC50 (no-11) was > 16 µM and the IC50 (COLO-800) was > 16 µM. For the same compound, the IC50 (EW-11) was > 16 µM, the IC50 (EM-2) was > 16 µM and the IC50 (Calu-6) was > 16 µM. For the same compound, the IC50 (NCI-H1395) was > 16 µM, the IC50 (TGBC1TKB) was > 16 µM and the IC50 (DB) was > 16 µM. The IC50 (CGTH-W-1) was > 16 µM, the IC50 (LC-2-ad) was > 16 µM and the IC50 (TK-10) was > 16 µM.

`O=c1[nH]c2ccccc2n1C1CCN(Cc2ccc(-c3nc4cc5[nH]cnc5cc4nc3-c3ccccc3)cc2)CC1` was tested, and the IC50 (A101D) was > 2.56 µM, the IC50 (EW-3) was > 2.56 µM and the IC50 (COLO-668) was > 2.56 µM. For the same compound, the IC50 (TE-9) was > 2.56 µM, the IC50 (HD-MY-Z) was > 2.56 µM and the IC50 (SH-4) was > 2.56 µM. The IC50 (NCI-H2126) was > 2.56 µM, the IC50 (NCI-H1355) was > 2.56 µM and the IC50 (RKO) was > 2.56 µM. The IC50 (NCI-H1155) was > 2.56 µM, the IC50 (MZ7-mel) was > 2.56 µM and the IC50 (GOTO) was > 2.56 µM. For the same compound, the IC50 (GR-ST) was > 2.56 µM, the IC50 (KALS-1) was > 2.56 µM and the IC50 (NCI-H1648) was > 2.56 µM. The IC50 (TE-8) was > 2.56 µM, the IC50 (KGN) was > 2.56 µM and the IC50 (KLE) was > 2.56 µM. The IC50 (EKVX) was > 2.56 µM, the IC50 (SK-NEP-1) was > 2.56 µM and the IC50 (KINGS-1) was > 2.56 µM. For the same compound, the IC50 (GAK) was > 2.56 µM, the IC50 (ML-2) was > 2.56 µM and the IC50 (HT-144) was > 2.56 µM. The IC50 (U-87 MG) was > 2.56 µM, the IC50 (RXF 393) was > 2.56 µM and the IC50 (MZ1-PC) was > 2.56 µM. The IC50 (EW-16) was > 2.56 µM, the IC50 (VA-ES-BJ) was > 2.56 µM and the IC50 (EW-24) was > 2.56 µM. The IC50 (HC-1) was > 2.56 µM, the IC50 (NCI-H23) was > 2.56 µM and the IC50 (SW 962) was > 2.56 µM. The IC50 (NCI-H1650) was > 2.56 µM, the IC50 (SBC-1) was > 2.56 µM and the IC50 (NEC8) was > 2.56 µM. The IC50 (NCI-H1092) was > 2.56 µM, the IC50 (SK-PN-DW) was > 2.56 µM and the IC50 (NCI-H226) was > 2.56 µM. The IC50 (LB373-MEL-D) was > 2.56 µM, the IC50 (SK-N-DZ) was > 2.56 µM and the IC50 (KNS-81-FD) was > 2.56 µM. The IC50 (L-363) was > 2.56 µM, the IC50 (no-10) was > 2.56 µM and the IC50 (KARPAS-299) was > 2.56 µM. For the same compound, the IC50 (NCI-H1838) was > 2.56 µM, the IC50 (LOX IMVI) was > 2.56 µM and the IC50 (K562) was > 2.56 µM. The IC50 (TE-12) was > 2.56 µM, the IC50 (IA-LM) was > 2.56 µM and the IC50 (TE-5) was > 2.56 µM. The IC50 (NB5) was > 2.56 µM, the IC50 (MS-1) was > 2.56 µM and the IC50 (SF-126) was > 2.56 µM. For the same compound, the IC50 (DEL) was > 2.56 µM, the IC50 (no-11) was > 2.56 µM and the IC50 (COLO-800) was > 2.56 µM. The IC50 (EW-11) was > 2.56 µM, the IC50 (EM-2) was > 2.56 µM and the IC50 (Calu-6) was > 2.56 µM. For the same compound, the IC50 (NCI-H1395) was > 2.56 µM, the IC50 (TGBC1TKB) was > 2.56 µM and the IC50 (DB) was > 2.56 µM. For the same compound, the IC50 (CGTH-W-1) was > 2.56 µM, the IC50 (LC-2-ad) was > 2.56 µM and the IC50 (TK-10) was > 2.56 µM.
